Source: patent publication US6562464B1, “Utilization of phenylglyoxalic acid esters as photoinitiators” (BASF Aktiengesellschaft, priority 1999, dated 2003)
Like-named read-outs stand apart in the source and are kept apart here.

How the values were obtained:
Assay type in all cases: physicochemical
[1] = Solubility in Laromer LR 8987
Description: Using a box-type coating bar, a glass plate was coated with this formulation so as to form a film having a thickness of 50 μm or 100 μm. This film was subsequently cured in an IST belt exposure unit at 10 m/min under air.
4 parts of 4,4′-isopropylidenedicyclohexanol di(phenylglyoxylate) [hydrogenated bisphenol-A-di(phenylglyoxylate)] were insoluble in 96 parts of Laromer LR 8987. Therefore, radiation curing was not possible.
However, the solubility was sufficient to prepare and cure a film as described above.

[2] = Solubility in hexanediol diacrylate (HDDA); design: key: sol = soluble; insol = insoluble
Description: a) Solubility in hexanediol diacrylate (HDDA)

[3] = Solubility in an aliphatic urethane acrylate; conditions: 2%
Experimental: b) The solubility of 2% each of 1,4-cyclohexanedimethanol di(phenylglyoxylate) and 4,4′-isopropylidenedicyclohexanol di(phenylglyoxylate) in an aliphatic urethane acrylate was also tested.

[4] = Weight loss after 3 hours at 130° C.
Experimental: 12.0 g of pentaerythritol, 42.8 g of phenylglyoxylic acid and 0.27 g of sulfuric acid are suspended in 17.8 g of methylcyclohexane and the suspension is heated under reflux. The water of esterification is removed via a separating vessel, so that the esterification reaction is at an end after 8 hours. Distillation of the methylcyclohexane leaves a solid melt (acid number 25 mg KOH/g). The weight loss after 3 hours at 130° C. is 7.3%.
21.4 g of 1,4-butanediol diglycidyl ether (Araldit DY026) are mixed with 30 g of phenylglyoxylic acid in the presence of 0.5 g of tetrabutylammonium bromide. The mixture is cautiously heated to 103° C. and is held at this temperature for 5 hours until the acid number has fallen to 7.2 mg KOH/g. The product is a highly viscous liquid (153.6 Pas). The weight loss after 3 hours at 130° C. is 0.7%.
28.84 g of 1,4-bis(hydroxymethyl)cyclohexane, 72.23 g of methyl phenylglyoxylate and 0.82 g of dibutoxydibutyltin are melted over 180° C. in a reaction flask and methanol is distilled off via a column. After virtually all of the theoretical amount of methanol has passed over, the residue is concentrated on a rotary evaporator, the concentrate is digested in ethanol, and the resulting solid is filtered off with suction. The IR and H-NMR spectra correspond to the expected structure. The melting point is 92° C. The weight loss after 3 hours at 130° C. is 0.5%.

4,4′-isopropylidenedicyclohexanol di(phenylglyoxylate)
solubility in Laromer LR 8987 ([1]; 4 parts in 96 parts of Laromer LR 8987 (mixture of hexanediol diacrylate and an aliphatic urethane acrylate)): insoluble | Solubility in hexanediol diacrylate (HDDA) ([2]; 1%): sol | Solubility in hexanediol diacrylate (HDDA) ([2]; 2%): in- | solubility in an aliphatic urethane acrylate [3]: insoluble or did not dissolve completely

O=C(OC1CCC(OC(=O)C(=O)c2ccccc2)CC1)C(=O)c1ccccc1 (stereo not shown) [1,4-cyclohexanediol di(phenylglyoxylate)]
solubility in Laromer LR 8987 [1]: did not dissolve completely | Solubility in hexanediol diacrylate (HDDA) ([2]; 1%): sol | Solubility in hexanediol diacrylate (HDDA) ([2]; 2%): sol | Solubility in hexanediol diacrylate (HDDA) ([2]; 3%): in-

O=CC(=O)OCC(COC(=O)C=O)(COC(=O)C=O)COC(=O)C=O [Example 1, Pentaerythritol Tetraglyoxylate]
weight loss after 3 hours at 130° C. [4]: 7.3%

1,4-Butanediol Diglycidyl Ether Diglyoxylate [Example 2]
weight loss after 3 hours at 130° C. [4]: 0.7%
